{"source": "patent EP2706985B1", "about": "(Acerus Biopharma Inc., priority 2011, dated 2012)", "test": "Example 11 Period 2: multiple-dose pharmacokinetics (free and total testosterone, dihydrotestosterone, estradiol, SHBG)", "details": "multi-dose, PK conclusions", "data": [{"smiles": "C[C@]12CC[C@H]3[C@@H](CCC4=CC(=O)CC[C@@]43C)[C@@H]1CC[C@@H]2O", "note": "[Testosterone, 17β-Hydroxyandrost-4-en-3-one]", "values": [{"measurement": "time to return to baseline", "value": "12 to 15", "unit": "h"}]}]}
